Molecules are shown by their SMILES. In brackets after ≈: the same amount, converted by molar mass.

The test system of series [1] is Enterococcus faecalis ATCC 29212 (Ef). The experiment in a line: Antimicrobial serial microdilution, Ef. Type of series: cell-based. The conditions noted are these: for MIC: Enterococcus faecalis, ATCC29212, read-out: Minimum Inhibitory Concentration (MIC), Ef. On the technique in general: Dilution methods test growth across graded concentrations, often in twofold steps.

Another series has as its system A375. The experiment in a line: cells. The conditions noted are these: Homo sapiens, A-375, 48 h, read-out: IC50, A375. Type of series: cell-based.
For another series, the system named is PANC-1. The series is described as follows: cells. The conditions noted are these: Homo sapiens, PANC-1, 48 h, read-out: IC50, PANC-1.
The next series deals with MRSA-1. The experiment in a line: Antimicrobial serial microdilution, MRSA-1. Type of series: cell-based, Staphylococcus aureus. The conditions noted are these: for MIC / MBC: Staphylococcus aureus, MRSA; for MIC: read-out: Minimum Inhibitory Concentration (MIC), MRSA-1; for MBC: read-out: Minimum bactericidal and fungicidal concentrations (MBC), (MFC), MRSA-1.
The test system of another series is PC3. The experiment in a line: cells. Type of series: cell-based. The conditions noted are these: Homo sapiens, PC-3, 48 h, read-out: IC50, PC3.
In the next series the test system is Chang Liver. The series is described as follows: cells. The conditions noted are these: Homo sapiens, 48 h, read-out: IC50, Chang Liver.
The next series concerns MRSA-2. The experiment in a line: Antimicrobial serial microdilution, MRSA-2. Type of series: cell-based, Staphylococcus aureus. The conditions noted are these: for MIC: read-out: Minimum Inhibitory Concentration (MIC), MRSA-2.
Series [2] deals with M-HeLa. The experiment in a line: cells. The conditions noted are these: Homo sapiens, 48 h, read-out: IC50, M-HeLa.
For series [3], the system named is Bacillus cereus ATCC 10702 (Bc). The series is described as follows: Antimicrobial serial microdilution, Bc. Type of series: cell-based. The conditions noted are these: for MIC: ATCC10702, read-out: Minimum Inhibitory Concentration (MIC), Bc.
For another series, the system named is A549. The series is described as follows: cells. The conditions noted are these: Homo sapiens, A549, 48 h, read-out: IC50, A549.
Another series has as its system HuTu 80. The series is described as follows: cells. The conditions noted are these: Homo sapiens, HuTu80, 48 h, read-out: IC50, HuTu 80.
For a further series, the system named is T98G. The series is described as follows: cells. Type of series: cell-based. The conditions noted are these: Homo sapiens, 48 h, read-out: IC50, T98G.
A further series deals with WI38. The experiment in a line: cells. The conditions noted are these: Homo sapiens, WI-38, 48 h, read-out: IC50, WI38. Type of series: cell-based.
The test system of the next series is MCF-7. The series is described as follows: cells. Type of series: cell-based, human. The conditions noted are these: for IC50: Homo sapiens, MCF7, 48 h, read-out: IC50, MCF-7.
Series [4] concerns Staphylococcus aureus ATCC 6538P FDA 209P (Sa). The series is described as follows: Antimicrobial serial microdilution, Sa. Type of series: cell-based. The conditions noted are these: for MIC / MBC: Staphylococcus aureus; for MIC: read-out: Minimum Inhibitory Concentration (MIC), Sa; for MBC: read-out: Minimum bactericidal and fungicidal concentrations (MBC), (MFC), Sa.
The conditions of series [5]: 500 ng/mL spike, sampled 5, 15, 30 min, 1 and 2 hours; result in words.
The test system of series [6] is HuTu 80, MCF-7 and human cervical carcinoma cell lines. The experiment in a line: cells. Type of series: cell-based. The conditions noted are these: 120 h, read-out: IC50 range over HuTu 80, MCF-7 and human cervical carcinoma lines.
Series [7] concerns M-HeLa.

Usually IC50 stands for the point on the concentration scale where inhibition reaches its midpoint. On to `CC(C)(C)c1cc(C(c2ccc(Nc3c([N+](=O)[O-])cc([N+](=O)[O-])c4no[n+]([O-])c34)nc2N)P(=O)(Oc2ccccc2)Oc2ccccc2)cc(C(C)(C)C)c1O` (stereo not shown) [4d, 7-((6-amino-5-((3,5-di-tert-butyl-4-hydroxyphenyl)(diphenoxyphosphoryl)methyl)pyridin-2-yl)amino)-4,6-dinitrobenzo[c][1,2,5]oxadiazole 1-oxide], for which, in [1], the “Minimum Inhibitory Concentration (MIC), Ef” value is “-”. In addition, the IC50 in the series on A375 is 17 ± 1.4 µM; in the series on PANC-1, 11.9 ± 0.9 µM; in the series with PC3, 11.3 ± 0.9 µM; with Chang Liver, 21 ± 2.4 µM; in the series on M-HeLa [2], 6.3 ± 0.5 µM; with A549, 9 ± 0.7 µM. Moreover, the 50% inhibitory concentration (IC50) with HuTu 80 came out at 13.1 ± 1.1 µM; with T98G, 7.9 ± 0.7 µM; in the series with WI38, 11.3 ± 1.1 µM; in the series with MCF-7 it was 9 ± 0.7 µM. The “Minimum Inhibitory Concentration (MIC), MRSA-1” value with MRSA-1 is “-”. Moreover, the “Minimum Inhibitory Concentration (MIC), MRSA-2” value with MRSA-2 was “-”. Moreover, the “Minimum Inhibitory Concentration (MIC), Bc” value in series [3] was “-”. The “Minimum Inhibitory Concentration (MIC), Sa” value in [4] is “-”.

With `CC(C)OP(=O)(OC(C)C)C(c1cc(C(C)(C)C)c(O)c(C(C)(C)C)c1)c1ccc(Nc2c([N+](=O)[O-])cc([N+](=O)[O-])c3no[n+]([O-])c23)nc1Nc1c([N+](=O)[O-])cc([N+](=O)[O-])c2no[n+]([O-])c12` (stereo not shown) [5c, 7,7’-((3-((3,5-di-tert-butyl-4-hydroxyphenyl)(diisopropoxyphosphoryl)methyl)pyridine-2,6-diyl)bis(azanediyl))bis(4,6-dinitrobenzo[c][1,2,5]oxadiazole 1-oxide)], the “Minimum bactericidal and fungicidal concentrations (MBC), (MFC), Ef” value in [1] is “-”. The MIC in [1] is 62.5 ± 5.3 µg/mL (≈ 66.5 µM); in the series on MRSA-1, 62.5 ± 5.5 µg/mL (≈ 66.5 µM); in the series on MRSA-2 (Staphylococcus aureus, MRSA) it was 250 ± 20 µg/mL (≈ 266 µM); in series [3] (Bacillus cereus), 31.3 ± 2.5 µg/mL (≈ 33.3 µM); in series [4], 31.3 ± 2.3 µg/mL (≈ 33.3 µM). Also, the IC50 with A375 is 9 ± 0.8 µM; with PANC-1 it was 5 ± 0.3 µM; in the series on PC3, 6.8 ± 0.5 µM; with Chang Liver it was 4.1 ± 0.8 µM; with M-HeLa [2], 2.4 ± 0.2 µM; in the series with A549 it was 7.7 ± 0.6 µM. Further, the 50% inhibitory concentration (IC50) with HuTu 80 was found to be 3.9 ± 0.3 µM; in the series with T98G it was 7.7 ± 0.6 µM; in the series on WI38, 5 ± 0.4 µM; in the series on MCF-7, 4.5 ± 0.4 µM. For the same molecule, in the series on MRSA-1, the “Minimum bactericidal and fungicidal concentrations (MBC), (MFC), MRSA-1” value is “-”. In the series with MRSA-2, the “Minimum bactericidal and fungicidal concentrations (MBC), (MFC), MRSA-2” value is reported as “-”. Further, the MBC in series [3] (Bacillus cereus, ATCC10702, read-out: Minimum bactericidal and fungicidal concentrations (MBC), (MFC), Bc) was 250 ± 20 µg/mL (≈ 266 µM). For the same molecule, the “Minimum bactericidal and fungicidal concentrations (MBC), (MFC), Sa” value in [4] is “-”.

In the case of `CC(C)(C)c1cc(C(c2ccc(Nc3c([N+](=O)[O-])cc([N+](=O)[O-])c4no[n+]([O-])c34)nc2Nc2c([N+](=O)[O-])cc([N+](=O)[O-])c3no[n+]([O-])c23)P(=O)(Oc2ccccc2)Oc2ccccc2)cc(C(C)(C)C)c1O` (stereo not shown) [5d, 7,7’-((3-((3,5-di-tert-butyl-4-hydroxyphenyl)(diphenoxyphosphoryl)methyl)pyridine-2,6-diyl)bis(azanediyl))bis(4,6-dinitrobenzo[c][1,2,5]oxadiazole 1-oxide)], the “Minimum bactericidal and fungicidal concentrations (MBC), (MFC), Ef” value in series [1] is “-”. Moreover, the MIC in [1] worked out at 62.5 ± 5.2 µg/mL (≈ 62 µM); in the series with MRSA-1 it was 62.5 ± 5.3 µg/mL (≈ 62 µM); with MRSA-2 (Staphylococcus aureus, MRSA), 250 ± 19 µg/mL (≈ 248 µM); in series [3] (Bacillus cereus), 62.5 ± 5.4 µg/mL (≈ 62 µM); in [4] it was 15.6 ± 1.2 µg/mL (≈ 15.5 µM). Moreover, the IC50 in the series with A375 turned out to be 5.9 ± 0.5 µM; with PANC-1 it was 2.8 µM; in the series on PC3, 5.9 ± 0.4 µM; in the series on Chang Liver, 9.2 ± 1.9 µM; with M-HeLa [2], 2 µM; in the series with A549, 5.2 ± 0.4 µM. The half-maximal inhibitory concentration (IC50) in [6] is 0.9 to 5.9 µM; in the series on HuTu 80, 4.9 ± 0.3 µM; in the series on T98G, 4.8 ± 0.4 µM; in the series with WI38, 8.4 ± 0.7 µM; in the series on MCF-7, 2.1 µM. In addition, the MBC with MRSA-1 is 250 ± 20 µg/mL (≈ 248 µM); in the series on MRSA-2 (Staphylococcus aureus, MRSA, read-out: Minimum bactericidal and fungicidal concentrations (MBC), (MFC), MRSA-2), 250 ± 19 µg/mL (≈ 248 µM); in [4], 125 ± 10 µg/mL (≈ 124 µM). For the same molecule, the “Biostability in whole mice blood (peak area relative to 5 min value)” value in series [5] is on record as “metabolized, but its rate is quite low”. The “Minimum bactericidal and fungicidal concentrations (MBC), (MFC), Bc” value in series [3] is “-”. Moreover, in the series on M-HeLa [7], the “Times more active than the starting SHP, M-HeLa” value was found to be 3.7 times. Moreover, in the series on MCF-7, the “Times more active than the starting SHP, MCF-7” value is listed as 7.6 times.

`COP(=O)(OC)C(c1cc(C(C)(C)C)c(O)c(C(C)(C)C)c1)c1ccc(Nc2c([N+](=O)[O-])cc([N+](=O)[O-])c3no[n+]([O-])c23)nc1Nc1c([N+](=O)[O-])cc([N+](=O)[O-])c2no[n+]([O-])c12` (stereo not shown) [5a, 7,7’-((3-((3,5-di-tert-butyl-4-hydroxyphenyl)(dimethoxyphosphoryl)methyl)pyridine-2,6-diyl)bis(azanediyl))bis(4,6-dinitrobenzo[c][1,2,5]oxadiazole 1-oxide)]: the “Minimum bactericidal and fungicidal concentrations (MBC), (MFC), Ef” value in [1] is listed as “-”. Further, the MIC is 125 ± 10 µg/mL (≈ 141 µM) in series [1]; 250 ± 20 µg/mL (≈ 283 µM) in the series with MRSA-1; 250 ± 20 µg/mL (≈ 283 µM) in the series with MRSA-2 (Staphylococcus aureus, MRSA); 62.5 ± 5.3 µg/mL (≈ 70.7 µM) in [3] (Bacillus cereus); 125 ± 11 µg/mL (≈ 141 µM) in series [4]. The half-maximal inhibitory concentration (IC50) stood at 21.6 ± 1.8 µM in the series with A375; 13.5 ± 1.1 µM in the series with PANC-1; 7.7 ± 0.6 µM in the series on PC3; 15.1 ± 1.7 µM in the series with Chang Liver; 7.7 ± 0.6 µM in the series with M-HeLa [2]; 48.4 ± 3.5 µM with A549. For the same molecule, the half-inhibitory concentration (IC50) in the series on HuTu 80 is 11 ± 0.9 µM; with T98G it was 26.8 ± 2.2 µM; with WI38, 11.4 ± 0.9 µM; in the series with MCF-7 it was 12.1 ± 1.1 µM. For the same molecule, the figures for the MBC (in the series on MRSA-1; in [4]) were 250 ± 21 µg/mL (≈ 283 µM) and 250 ± 19 µg/mL (≈ 283 µM), respectively. Further, the “Minimum bactericidal and fungicidal concentrations (MBC), (MFC), MRSA-2” value in the series on MRSA-2 was “-”. For the same molecule, the “Minimum bactericidal and fungicidal concentrations (MBC), (MFC), Bc” value in series [3] is “-”.

(Values after article PMC10145285, “Diverse Biological Activity of Benzofuroxan/Sterically Hindered Phenols Hybrids” (Pharmaceuticals, 2023).)
